Assay results reported in ChEMBL document CHEMBL5331095, “Structure-activity relationship and biological evaluation of xanthine derivatives as PCSK9 inhibitors for the treatment of atherosclerosis” (Eur J Med Chem, 2023).
Activity calls are given as the source filed them. No cut-off for these calls is given here.

Tests used:
[1] = molecular target: Proprotein convertase subtilisin/kexin type 9 (Homo sapiens) (UniProt Q8NBP7); assay: Inhibition of PCSK9 transcriptional activity in human HepG2 cells stably expressing luciferase reporter plasmid containing PCSK9 promoter assessed as decrease in luciferase activity at 10 ug/ml incubated for 24 hrs by Luciferase assay relative to control; format: cell-based; settings: dose 10.0 µg/ml
[2] = Acute toxicity in C57BL/6 mouse assessed as behavioral change upto 1000 mg/kg, IG and measured every day for 1 week; format: organism-based; settings: in vivo, po, 168 h, time 1 weeks
[3] = tested on: PCSK9 transcriptional activity; assay: Therapeutic index, ratio of TC50 for cytotoxicity against human HepG2 cells to IC50 for inhibition of PCSK9 transcriptional activity in human HepG2 cells stably expressing luciferase reporter plasmid containing PCSK9 promoter; format: toxicity, cell-based
[4] = molecular target: Proprotein convertase subtilisin/kexin type 9 (Homo sapiens) (UniProt Q8NBP7); assay: Inhibition of PCSK9 transcriptional activity in human HepG2 cells transfected with luciferase reporter plasmid containing truncated D5 (-392 to -1 base pairs) human PCSK9 promoter region assessed as decrease in luciferase activity incubated for 24 hrs by Luciferase assay; format: cell-based
[5] = tested on: Mus musculus; assay: Antiatherosclerotic activity in high-fat diet fed ApoE knockout C57BL/6 mouse assessed as decrease in high-fat diet induced increase in body weight at 30 mg/kg, IG for 8 weeks; format: functional, organism-based
[6] = tested on: Mus musculus; assay: Antiatherosclerotic activity in high-fat diet fed ApoE knockout C57BL/6 mouse assessed as decrease in LDL cholesterol level at 30 mg/kg, IG for 8 weeks by FPLC analysis; format: functional, organism-based
[7] = molecular target: Proprotein convertase subtilisin/kexin type 9 (Homo sapiens) (UniProt Q8NBP7); assay: Inhibition of PCSK9 in human HepG2 cells assessed as increase in LDLR protein expression level at 2.5 to 25 uM incubated for 24 hrs by Western blot analysis; format: cell-based; settings: dose 2.5-25 µM
[8] = tested on: Mus musculus; assay: Antiatherosclerotic activity in high-fat diet fed ApoE knockout C57BL/6 mouse assessed as decrease in VLDL fraction cholesterol level at 30 mg/kg, IG for 8 weeks by FPLC analysis; format: functional, organism-based
[9] = tested on: Mus musculus; assay: In vivo inhibition of PCSK9 in high-fat diet fed ApoE knockout C57BL/6 mouse assessed as decrease in PCSK9 expression in serum at 30 mg/kg, IG for 8 weeks by ELISA; format: functional, organism-based
[10] = molecular target: Proprotein convertase subtilisin/kexin type 9 (Homo sapiens) (UniProt Q8NBP7); assay: Inhibition of PCSK9 transcriptional activity in human HepG2 cells transfected with luciferase reporter plasmid containing truncated D3 (-709 to -1 base pairs) human PCSK9 promoter region assessed as decrease in luciferase activity incubated for 24 hrs by Luciferase assay; format: cell-based
[11] = Acute toxicity in C57BL/6 mouse assessed as body weight change upto 1000 mg/kg, IG and measured every day for 1 week; format: organism-based; settings: in vivo, po, 168 h, time 1 weeks
[12] = molecular target: Proprotein convertase subtilisin/kexin type 9 (Homo sapiens) (UniProt Q8NBP7); assay: Inhibition of PCSK9 transcriptional activity in human HepG2 cells transfected with luciferase reporter plasmid containing truncated D2 (-1214 to -1 base pairs) human PCSK9 promoter region assessed as decrease in luciferase activity incubated for 24 hrs by Luciferase assay; format: cell-based
[13] = molecular target: Proprotein convertase subtilisin/kexin type 9 (Homo sapiens) (UniProt Q8NBP7); assay: Inhibition of PCSK9 transcriptional activity in human HepG2 cells transfected with luciferase reporter plasmid containing truncated D6 (-351 to -1 base pairs) human PCSK9 promoter region assessed as decrease in luciferase activity incubated for 24 hrs by Luciferase assay; format: cell-based
[14] = tested on: Mus musculus; assay: Antiatherosclerotic activity in high-fat diet fed ApoE knockout C57BL/6 mouse assessed as reduction in atherosclerotic plaque size in aortae en face root at 30 mg/kg, IG for 8 weeks by Oil Red O staining based imaging analysis; format: functional, organism-based
[15] = molecular target: Proprotein convertase subtilisin/kexin type 9 (Homo sapiens) (UniProt Q8NBP7); assay: Inhibition of PCSK9 in human HepG2 cells assessed as increase in LDL-cholesterol cellular uptake by measuring DiI fluorescence at 2.5 to 25 uM incubated for 24 hrs by Dil-LDL staining based flow cytometry analysis; format: cell-based; settings: dose 2.5-25 µM
[16] = Acute toxicity in C57BL/6 mouse assessed as lethality upto 1000 mg/kg, IG and measured every day for 1 week; format: organism-based; settings: in vivo, po, time 1 weeks
[17] = tested on: Mus musculus; assay: In vivo inhibition of PCSK9 in high-fat diet fed ApoE knockout C57BL/6 mouse assessed as decrease in PCSK9 expression in liver at 30 mg/kg, IG for 8 weeks by Western blot analysis; format: functional, organism-based
[18] = molecular target: Proprotein convertase subtilisin/kexin type 9 (Homo sapiens) (UniProt Q8NBP7); assay: Inhibition of PCSK9 in human HepG2 cells assessed as decrease in PCSK9 protein expression level at 2.5 to 25 uM incubated for 24 hrs by Western blot analysis; format: cell-based; settings: dose 2.5-25 µM
[19] = tested on: Mus musculus; assay: Antiatherosclerotic activity in high-fat diet fed ApoE knockout C57BL/6 mouse assessed as decrease in serum total cholesterol level at 30 mg/kg, IG for 8 weeks by lipid profiling assay; format: functional, organism-based
[20] = Cytotoxicity against human HepG2 cells assessed as reduction in cell viability by measuring toxic concentration incubated for 24 hrs by MTT assay; format: toxicity, cell-based; settings: read-out: TC50
[21] = molecular target: Proprotein convertase subtilisin/kexin type 9 (Homo sapiens) (UniProt Q8NBP7); assay: Inhibition of PCSK9 transcriptional activity in human HepG2 cells transfected with luciferase reporter plasmid containing truncated D1 (-1711 to -1 base pairs) human PCSK9 promoter region assessed as decrease in luciferase activity incubated for 24 hrs by Luciferase assay; format: cell-based
[22] = Acute toxicity in C57BL/6 mouse assessed as survival upto 1000 mg/kg, IG and measured every day for 1 week; format: organism-based; settings: in vivo, po, 168 h, time 1 weeks
[23] = tested on: Mus musculus; assay: Antiatherosclerotic activity in high-fat diet fed ApoE knockout C57BL/6 mouse assessed as decrease in serum triglyceride level at 30 mg/kg, IG for 8 weeks by lipid profiling assay; format: functional, organism-based
[24] = tested on: Mus musculus; assay: Antiatherosclerotic activity in high-fat diet fed ApoE knockout C57BL/6 mouse assessed as reduction in atherosclerotic plaque size in aortic root at 30 mg/kg, IG for 8 weeks by Oil Red O staining based imaging analysis; format: functional, organism-based
[25] = molecular target: Proprotein convertase subtilisin/kexin type 9 (Homo sapiens) (UniProt Q8NBP7); assay: Inhibition of PCSK9 in human HepG2 cells assessed as fold increase in LDL-cholesterol cellular uptake by measuring DiI fluorescence at 25 uM incubated for 24 hrs by Dil-LDL staining based flow cytometry analysis relative to control; format: cell-based
[26] = molecular target: Proprotein convertase subtilisin/kexin type 9 (Homo sapiens) (UniProt Q8NBP7); assay: Inhibition of PCSK9 transcriptional activity in human HepG2 cells transfected with luciferase reporter plasmid containing truncated D7 (-335 to -1 base pairs) human PCSK9 promoter region assessed as decrease in luciferase activity incubated for 24 hrs by Luciferase assay; format: cell-based
[27] = molecular target: Proprotein convertase subtilisin/kexin type 9 (Homo sapiens) (UniProt Q8NBP7); assay: Inhibition of PCSK9 transcriptional activity in human HepG2 cells transfected with luciferase reporter plasmid containing truncated D4 (-440 to -1 base pairs) human PCSK9 promoter region assessed as decrease in luciferase activity incubated for 24 hrs by Luciferase assay; format: cell-based

Sequence of Proprotein convertase subtilisin/kexin type 9 (Homo sapiens) (Q8NBP7 31-152 limits assumed): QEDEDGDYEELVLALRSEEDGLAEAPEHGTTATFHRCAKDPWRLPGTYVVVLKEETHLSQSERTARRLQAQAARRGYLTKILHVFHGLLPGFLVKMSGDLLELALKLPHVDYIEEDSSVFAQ
Sequence of Proprotein convertase subtilisin/kexin type 9 (Homo sapiens) (Q8NBP7 153-692 limits assumed): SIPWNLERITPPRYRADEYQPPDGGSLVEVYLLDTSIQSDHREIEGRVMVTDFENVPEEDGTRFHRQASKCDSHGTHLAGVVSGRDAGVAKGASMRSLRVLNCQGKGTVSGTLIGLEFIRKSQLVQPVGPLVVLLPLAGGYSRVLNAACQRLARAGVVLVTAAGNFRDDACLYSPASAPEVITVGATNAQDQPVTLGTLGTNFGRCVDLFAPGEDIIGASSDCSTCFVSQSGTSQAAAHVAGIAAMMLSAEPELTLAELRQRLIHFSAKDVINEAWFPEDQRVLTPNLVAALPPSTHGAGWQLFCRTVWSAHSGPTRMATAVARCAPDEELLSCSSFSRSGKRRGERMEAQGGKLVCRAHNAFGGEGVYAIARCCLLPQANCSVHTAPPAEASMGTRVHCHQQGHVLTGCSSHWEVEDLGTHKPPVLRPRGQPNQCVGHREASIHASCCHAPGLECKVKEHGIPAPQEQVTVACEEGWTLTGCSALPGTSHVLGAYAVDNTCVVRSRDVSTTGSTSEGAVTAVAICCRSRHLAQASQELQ

Cn1c(=O)c2c(nc(NCCO)n2CC(=O)c2ccccc2)n(C)c1=O
inhibition [1]: 40.8%

Cn1c(=O)c2c(nc(NCCO)n2Cc2cc(F)ccc2F)n(C)c1=O
inhibition [1]: 79.9%

CCCn1c(NCCO)nc2c1c(=O)n(C)c(=O)n2C
inhibition [1]: 12.1%

COc1cccc(Cn2c(NCC(O)CO)nc3c2c(=O)n(C)c(=O)n3C)c1 (stereo unspecified)
inhibition [1]: 11.6%

Cn1c(=O)c2c(nc(NCCO)n2Cc2ccccc2[N+](=O)[O-])n(C)c1=O
inhibition [1]: 20.2%

COc1cccc(Cn2c(Nc3cccc(O)c3)nc3c2c(=O)n(C)c(=O)n3C)c1
inhibition [1]: -9.3%

COCCNc1nc2c(c(=O)n(C)c(=O)n2C)n1Cc1cccc(OC)c1
Activity [2]: Non-Toxic | selectivity ratio [3]: > 31.3 | inhibition [4]: Active | inhibition [1]: 85.7% | Activity [5]: Active | Activity [6]: Active | inhibition [7]: Dose-Dependent Effect | Activity [8]: Active | inhibition [9]: Active | inhibition [10]: Active | Activity [11]: Non-Toxic | inhibition [12]: Active | inhibition [13]: inactive | Activity [14]: Active | inhibition [15]: Dose-Dependent Effect | LD50 at 168 h [16]: > 1000 mg/kg | inhibition [17]: Active | inhibition [18]: Dose-Dependent Effect | Activity [19]: Active | CC50 at 24 h [20]: > 200 µM | inhibition [21]: Active | Activity [22]: Non-Toxic | Activity [23]: Active | Activity [24]: Active | fold change (FC) [25]: 1.7 | inhibition [26]: inactive | inhibition [27]: Active

COc1cccc(Cn2c(NCCCCO)nc3c2c(=O)n(C)c(=O)n3C)c1
inhibition [1]: 41.4%

COc1cc(Cn2c(NCCO)nc3c2c(=O)n(C)c(=O)n3C)cc(OC)c1
inhibition [1]: 1.7%

Cn1c(=O)c2c(nc(NCCO)n2Cc2ccc(F)cc2F)n(C)c1=O
inhibition [1]: 76.1%

COc1cccc(Cn2c(N[C@@H](C)CO)nc3c2c(=O)n(C)c(=O)n3C)c1
inhibition [1]: 81%

Cc1ccccc1Cn1c(NCCO)nc2c1c(=O)n(C)c(=O)n2C
inhibition [1]: 88.1%

COc1ccc(Cn2c(NCCO)nc3c2c(=O)n(C)c(=O)n3C)cc1OC
inhibition [1]: 16.2%

Cn1c(=O)c2c(nc(NCCO)n2Cc2ccccc2Br)n(C)c1=O
inhibition [1]: 53.3%

Cn1c(=O)c2c(nc(NCCO)n2Cc2cccc(Br)c2)n(C)c1=O
inhibition [1]: 34.2%

Cn1c(=O)c2c(nc(NCCO)n2Cc2cccc(F)c2)n(C)c1=O
inhibition [1]: 92.6%

Cn1c(=O)c2c(nc(NCCO)n2CC2CCOCC2)n(C)c1=O
inhibition [1]: 13.6%

COc1cccc(Cn2c(N[C@@H](CO)C(C)C)nc3c2c(=O)n(C)c(=O)n3C)c1
inhibition [1]: 18.9%

COc1cccc(Cn2c(NCCN(C)C)nc3c2c(=O)n(C)c(=O)n3C)c1
inhibition [1]: 19.6%

Cn1c(=O)c2c(nc(NCCO)n2Cc2ccc(F)c(C(F)(F)F)c2)n(C)c1=O
selectivity ratio [3]: 7.1 | inhibition [1]: 87% | CC50 at 24 h [20]: 55.1 µM

COc1cccc(Cn2c(N(C)CCO)nc3c2c(=O)n(C)c(=O)n3C)c1
inhibition [1]: 9.4%

COc1cccc(Cn2c(N3CCCCC3CN3CCCC3)nc3c2c(=O)n(C)c(=O)n3C)c1 (stereo unspecified)
inhibition [1]: 0.8%

Cn1c(=O)c2c(nc(NCCO)n2Cc2cccc(Cl)c2F)n(C)c1=O
Activity [2]: Non-Toxic | selectivity ratio [3]: > 35.1 | inhibition [1]: 95.8% | Activity [5]: Active | inhibition [7]: Dose-Dependent Effect | inhibition [9]: inactive | Activity [11]: Non-Toxic | inhibition [15]: Dose-Dependent Effect | LD50 at 168 h [16]: > 1000 mg/kg | inhibition [17]: Active | inhibition [18]: Dose-Dependent Effect | Activity [19]: inactive | CC50 at 24 h [20]: > 200 µM | Activity [22]: Non-Toxic | Activity [23]: inactive | fold change (FC) [25]: 1.7
